# According to patent US8540766B2, “Biofilm formation inhibitor and treatment device thereof” (Kyushu University, National University Corporation, priority 2004, dated 2013):
# “And” between values parts separate entries of the source, which are not always exact repeats. Equal values may be shown once.
# Tests used:
# [1] = high dosage long-term oral administration; cited from earlier work
# [2] = tested on: E. coli; test: Sensitivity of E. coli to EGCg (dilution method, MIC); assay type: cell-based; details: E. coli 1×10^7 CFU/ml, 37 degrees Celsius, 24 hours, static
# Method: Sensitivity of E. coli to EGCg was examined by a general sensibility test method (dilution method). E. coli suspensions (1×10^7 CFU/ml), in which gradually diluted (0.16, 0.31, 0.63, 1.25, 2.5, 5.0 mM) epigallocatechin gallate (EGCg) solutions were mixed, were placed in a culture plate and incubated at 37 degrees Celsius for 24 hours under a static condition. Minimal inhibitory concentration (MIC) was defined as the smallest EGCg concentration in which no bacteria growth is recognized macroscopically.
# [3] = tested on: E. coli in biofilm; test: Effect of EGCg on living microbes after biofilm formation; assay type: cell-based; details: 24 hours biofilm, then 24 hours exposure; listed as epigallocatechin gallate (EGCg)
# Method: Biofilms were formed on polyurethane surfaces after incubating 8 mm diameter polyurethane discs placed in a culture plate with an E. coli suspension (2×10^3 CFU/ml) under a static condition at 37 degrees Celsius for 24 hours. After adding solutions with various degrees of epigallocatechin gallate (EGCg) concentration (0-50 mM) to the biofilm surfaces that were formed, they were exposed for another 24 hours. After the polyurethane discs were taken out, and washed with a phosphate buffer solution gently, they were moved to a 2 ml phosphate buffer solution and sonicated to detach adhered E. coli. Viable E. coli cell count in this liquid was counted by the plate count method. […] These levels of concentration are much higher compared to the Example 1 where catechin was placed from the beginning of incubation.
# [4] = tested on: E. coli; test: Inhibitory effect of EGCg on biofilm formation on polyurethane discs (static, plate count); assay type: cell-based; details: E. coli 2×10^3 CFU/ml, 37 degrees Celsius, 24 hours, listed as epigallocatechin gallate (EGCg)
# Method: 8 mm diameter disc shaped polyurethanes were cultured with an E. coli suspension (2×10^3 CFU/ml) which was mixed with various concentrations of epigallocatechin gallate (EGCg) (0-0.2 mM) under a static condition at 37 degrees Celsius for 24 hours in a culture plate. After incubations, the polyurethane discs were taken out, and having been washed in a phosphate buffer gently, they were moved to a 2 ml phosphate buffer, where they were sonicated to detach the adhered E. coli. Viable E. coli cell counts in the liquid were calculated by the plate count method.
# [5] = tested on: E. coli; details: comparison among catechins; cited from earlier work
compound,measurement,setting,value
"O=C(O[C@@H]1Cc2c(O)cc(O)cc2O[C@@H]1c1cc(O)c(O)c(O)c1)c1cc(O)c(O)c(O)c1 [EGCg, epigallocatechin gallate]",side effects / safety to the human body,[1],no side effect has been reported
same,minimal inhibitory concentration (MIC),[2],0.63 mM and 287 μg/ml
same,concentration at which E. coli in biofilm were exterminated completely,[3],50 mM and 23 mg/ml
same,concentration at which viable cell counts in formed biofilm decreased significantly,[3],≥ 8 mM and ≥ 3.7 mg/ml
same,concentration at which biofilm formation is inhibited completely,[4],≥ 0.15 mM and ≥ 0.069 mg/ml
same,concentration at which biofilm formation is inhibited significantly,[4],≥ 0.12 mM and ≥ 0.055 mg/ml
same,"antibacterial action / minimal inhibitory concentration against E. coli, among the catechins",[5],smallest minimal inhibitory concentration against E. coli
